Values joined by “and” are separate entries in the source; they are usually repeats but may differ in a detail not shown here. Equal values may be shown once. Toxic doses and inconclusive results are not listed. How the source made its calls: active means survival T/C of 150% or more; inactive means T/C below 125% in these data.
Test system: P388 leukemia ip, CD2F1 mice, survival T/C
Test: NCI In Vivo Anticancer Drug Screen. Data for tumor model P388 Leukemia (intraperitoneal) in CD2F1 (CDF1) mice
Details: endpoint: median survival time, higher = longer survival
Method in brief: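 Mice carrying the transplanted tumor received test compound or vehicle. Survival was recorded in each group, and the value is the treated-group measurement divided by that of the vehicle-treated control group.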

[1] = dose: 100.0 mg/kg/injection, schedule: Q01DX009 (ip), vehicle: saline with Tween-80
[2] = dose: 50.0 mg/kg/injection, schedule: Q01DX009 (ip), vehicle: saline with Tween-80
[3] = dose: 60.0 mg/kg/injection, schedule: Q01DX005 (ip), vehicle: saline with Tween-80
[4] = dose: 50.0 mg/kg/injection, schedule: Q01DX009 (ip), vehicle: saline
[5] = dose: 100.0 mg/kg/injection, schedule: Q01DX009 (ip), vehicle: saline
[6] = dose: 200.0 mg/kg/injection, schedule: Q01DX009 (ip), vehicle: saline

Measured: T/C

Cc1c(Cl)c(O)cc2oc3cc(O)cc(O)c3c(=O)c12
inactive: dose: 10.0 mg/kg/injection, schedule: Q04DX003 (ip), vehicle: Klucel (hydroxypropylcellulose) (HPC) 105 % of control | dose: 20.0 mg/kg/injection, schedule: Q04DX003 (ip), vehicle: Klucel (hydroxypropylcellulose) (HPC) 102 % of control | dose: 40.0 mg/kg/injection, schedule: Q04DX003 (ip), vehicle: Klucel (hydroxypropylcellulose) (HPC) 105 % of control

CCOC(=O)C(/N=N\c1nn[nH]n1)/N=N/c1ncn[nH]1 (centres undefined)
inactive: dose: 100.0 mg/kg/injection, schedule: Q01DX001 (ip), vehicle: suspension in saline 102 % of control | dose: 200.0 mg/kg/injection, schedule: Q01DX001 (ip), vehicle: suspension in saline 102 % of control | dose: 400.0 mg/kg/injection, schedule: Q01DX001 (ip), vehicle: suspension in saline 107 % of control

Nc1ccccc1C(=O)Nc1ccccc1
inactive: [1] 88 % of control

COc1ccc(C(=O)CC2=NC3NN(c4ccccc4)C(=O)C3=C2CC(=O)c2ccc(OC)cc2)cc1 (centres undefined)
inactive: dose: 60.0 mg/kg/injection, schedule: Q01DX005 (ip), vehicle: suspension in saline 101 % of control | dose: 120.0 mg/kg/injection, schedule: Q01DX005 (ip), vehicle: suspension in saline 108 % of control | dose: 240.0 mg/kg/injection, schedule: Q01DX005 (ip), vehicle: suspension in saline 112 % of control

O=C1C2C(C(=O)N1c1ccc(OCc3ccccc3)cc1)C1c3ccccc3C2C2CCCCN21 (centres undefined)
inactive: dose: 3.13 mg/kg/injection, schedule: Q01DX009 (ip), vehicle: water 100 % of control | dose: 6.25 mg/kg/injection, schedule: Q01DX009 (ip), vehicle: water 105 % of control | dose: 12.5 mg/kg/injection, schedule: Q01DX009 (ip), vehicle: water 109 % of control | dose: 25.0 mg/kg/injection, schedule: Q01DX009 (ip), vehicle: water 111 % of control

CCOC(=O)C1n2c(=O)n(-c3ccc(Cl)cc3)c(=O)n21
inactive: dose: 50.0 mg/kg/injection, schedule: Q01DX005 (ip), vehicle: Klucel (hydroxypropylcellulose) (HPC) 96 % of control | dose: 100.0 mg/kg/injection, schedule: Q01DX005 (ip), vehicle: Klucel (hydroxypropylcellulose) (HPC) 87 % of control | dose: 200.0 mg/kg/injection, schedule: Q01DX005 (ip), vehicle: Klucel (hydroxypropylcellulose) (HPC) 92 % of control

CNC(=O)NC(c1ccc2c(c1)OCO2)c1cc2c(cc1O)OCO2 (centres undefined)
inactive: dose: 60.0 mg/kg/injection, schedule: Q01DX005 (ip), vehicle: Klucel (hydroxypropylcellulose) (HPC) 87 % of control | dose: 120.0 mg/kg/injection, schedule: Q01DX005 (ip), vehicle: Klucel (hydroxypropylcellulose) (HPC) 87 % of control

Clc1cc2nc[nH]c2cc1Cl
inactive: [2] 101 % of control | [1] 90 % of control

C/C(=N/NS(=O)(=O)c1c(C(C)C)cc(C(C)C)cc1C(C)C)c1cccc2c1OCO2
inactive: dose: 15.0 mg/kg/injection, schedule: Q01DX005 (ip), vehicle: saline with Tween-80 91 % of control | dose: 30.0 mg/kg/injection, schedule: Q01DX005 (ip), vehicle: saline with Tween-80 93 % of control | [3] 87 % of control and 92 % of control

Nc1nc(N)c2nc(/C(Cl)=N/O)cnc2n1
inactive: dose: 20.0 mg/kg/injection, schedule: Q01DX009 (ip), vehicle: saline 108 % of control | dose: 40.0 mg/kg/injection, schedule: Q01DX009 (ip), vehicle: saline 105 % of control | dose: 80.0 mg/kg/injection, schedule: Q01DX009 (ip), vehicle: saline 103 % of control

C/C(=N\Nc1cc(C)nc2ccc(C)cc12)c1cn(C)n(-c2ccccc2)c1=O
inactive: dose: 50.0 mg/kg/injection, schedule: Q01DX009 (ip), vehicle: Klucel (hydroxypropylcellulose) (HPC) 97 % of control | dose: 100.0 mg/kg/injection, schedule: Q01DX009 (ip), vehicle: Klucel (hydroxypropylcellulose) (HPC) 86 % of control

CN(C=O)/C=C1\CC(OO)NC1=O (centres undefined)
inactive: dose: 60.0 mg/kg/injection, schedule: Q01DX005 (ip), vehicle: saline 100 % of control | dose: 120.0 mg/kg/injection, schedule: Q01DX005 (ip), vehicle: saline 101 % of control | dose: 240.0 mg/kg/injection, schedule: Q01DX005 (ip), vehicle: saline 103 % of control

CC(N)C(=O)O (centres undefined)
inactive: [4] 115 % of control | [5] 105 % of control | [6] 106 % of control

O=S1(=O)CCN(Cc2ccncc2)CC1
inactive: [4] 100 % of control | [5] 98 % of control | [6] 100 % of control

Cc1nc(O)c(-c2ccc(Cl)cc2)c(=O)[nH]1
inactive: [3] 102 % of control | dose: 120.0 mg/kg/injection, schedule: Q01DX005 (ip), vehicle: saline with Tween-80 109 % of control

NC(=O)c1[nH]ncc1C1OCCC1O (centres undefined)
inactive: dose: 100.0 mg/kg/injection, schedule: Q01DX001 (ip), vehicle: saline with Tween-80 100 % of control | dose: 200.0 mg/kg/injection, schedule: Q01DX001 (ip), vehicle: saline with Tween-80 100 % of control | dose: 400.0 mg/kg/injection, schedule: Q01DX001 (ip), vehicle: saline with Tween-80 100 % of control

N/C(=N/S(=O)(=O)c1cccc([N+](=O)[O-])c1)NS(=O)(=O)c1ccc([N+](=O)[O-])cc1
inactive: dose: 7.5 mg/kg/injection, schedule: Q01DX009 (ip), vehicle: saline with Tween-80 101 % of control | dose: 15.0 mg/kg/injection, schedule: Q01DX009 (ip), vehicle: saline with Tween-80 113 % of control | dose: 30.0 mg/kg/injection, schedule: Q01DX009 (ip), vehicle: saline with Tween-80 110 % of control

Nc1nnc(N)n1N
inactive: [2] 108 % of control | [1] 115 % of control | dose: 200.0 mg/kg/injection, schedule: Q01DX009 (ip), vehicle: saline with Tween-80 99 % of control | dose: 400.0 mg/kg/injection, schedule: Q01DX009 (ip), vehicle: saline with Tween-80 93 % of control

O=C(O)C(C1CC(Cl)=NO1)N1C(=O)c2ccccc2C1=O (centres undefined)
inactive: dose: 6.2 mg/kg/injection, schedule: Q04DX003 (ip), vehicle: other 101 % of control | dose: 12.5 mg/kg/injection, schedule: Q04DX003 (ip), vehicle: other 100 % of control | dose: 25.0 mg/kg/injection, schedule: Q04DX003 (ip), vehicle: other 105 % of control | dose: 50.0 mg/kg/injection, schedule: Q04DX003 (ip), vehicle: other 99 % of control | dose: 100.0 mg/kg/injection, schedule: Q04DX003 (ip), vehicle: other 101 % of control | dose: 200.0 mg/kg/injection, schedule: Q04DX003 (ip), vehicle: other 99 % of control

c1ccc(CSc2ncnc3nc[nH]c23)cc1
inactive: dose: 12.5 mg/kg/injection, schedule: Q01DX010 (ip), vehicle: saline 100 % of control | dose: 25.0 mg/kg/injection, schedule: Q01DX010 (ip), vehicle: saline 100 % of control | dose: 50.0 mg/kg/injection, schedule: Q01DX010 (ip), vehicle: saline 90 % of control | dose: 100.0 mg/kg/injection, schedule: Q01DX010 (ip), vehicle: saline 90 % of control

CC(=O)c1c(O)cc(C)n(Cc2ccccc2)c1=O
inactive: dose: 50.0 mg/kg/injection, schedule: Q01DX005 (ip), vehicle: saline with Tween-80 99 % of control | dose: 100.0 mg/kg/injection, schedule: Q01DX005 (ip), vehicle: saline with Tween-80 100 % of control | dose: 200.0 mg/kg/injection, schedule: Q01DX005 (ip), vehicle: saline with Tween-80 99 % of control

COC(=O)c1nc(=S)[nH]c(C(=O)OC)c1C(=O)c1ccc2ccccc2c1
inactive: dose: 60.0 mg/kg/injection, schedule: Q01DX005 (ip), vehicle: Klucel + Tween-80 94 % of control | dose: 120.0 mg/kg/injection, schedule: Q01DX005 (ip), vehicle: Klucel + Tween-80 95 % of control | dose: 240.0 mg/kg/injection, schedule: Q01DX005 (ip), vehicle: Klucel + Tween-80 95 % of control

Cc1oc2c(C)c3oc(=O)cc(C)c3cc2c1CN1C(=O)c2ccccc2C1=O
inactive: dose: 100.0 mg/kg/injection, schedule: Q05DX002 (ip), vehicle: saline with Tween-80 99 % of control | dose: 200.0 mg/kg/injection, schedule: Q05DX002 (ip), vehicle: saline with Tween-80 92 % of control | dose: 400.0 mg/kg/injection, schedule: Q05DX002 (ip), vehicle: saline with Tween-80 98 % of control

Reference: PubChem BioAssay AID330 (DTP/NCI, 2004)
